Source: US9707417B2, “Use of benzotropolone derivatives as UV absorbers and antioxidants and their use in sunscreens and/or cosmetic compositions” (BASF SE, priority 2008, dated 2017)
“Also recorded” adds a separate entry of the source.

Experiments:
[1] = UV shielding properties (UV spectra in ethanol); type: physicochemical; set-up: Absorption maximum 1 λmax / Absorption maximum 2 λmax: unit not given here; settings: for Absorption maximum 1 A^1%1 cm / Absorption maximum 1 λmax / Absorption maximum 2 A^1%1 cm / Absorption maximum 2 λmax: UV spectra in ethanol
Text: The UV shielding properties of the benzotropolone derivatives were investigated by measuring their UV spectra in ethanol.
In the following table the investigated absorption maxima (λmax) together with the corresponding A^1%1cm values are listed.

[2] = Measurement of photostability (irradiation of highly diluted solution of the UV-filter, analysis by UV-spectroscopy); type: physicochemical; settings: for Half time: photostability, diluted solution in ethanol, first order kinetic model, half-life under conditions of COLIPA standard sun irradiation
Experimental: The method used for assessment of photostability is based on the irradiation of a highly diluted solution of the UV-filter.
The analysis after certain doses of irradiation is performed by UV-spectroscopy. The concentration of the UV-absorber in ethanol is adjusted to values between 1·10^−5 and 1·10^−6 mol/l, such that the absorbance of the solution in cuvette of 1 cm optical path length is ≦than 0.2. The mutual protection of filter molecules can be excluded under such conditions.
Prior to irradiation of a sample the UVB-intensity at the sample position is measured with a UV-radiometer (RM-12, Dr. Gröbel Electronic GmbH).
This radiometer is calibrated by comparison with a measurement of the spectral output of the metal halide lamp (including light guide and cut-off filter) using a wavelength-resolved radiometer (Gamma C11).
Therefore the relationship of the reading of the RM-12 radiometer and the corresponding spectral output of the lamp is known, and one is able to determine the wavelength-resolved intensities by measuring the UVB-intensity. By changing the distance between the end of the light guide and the cuvette, the UVB-intensity can be varied in the range of 100 μW/cm^2 and 4500 μW/cm^2.
For sample irradiation the highest possible intensity was used (4.5 mW/cm^2 UVB-intensity measured with the Macam 103 radiometer).
The irradiation time is varied from 0 to 180 min.
The dose the sample has received after 180 min corresponds to 60 MED.
During irradiation the sample was stirred. After certain intervals of irradiation, the samples were analyzed in a UV-spectrometer (Perkin Elmer, Lambda 16).
From the absorbance values at each dose of irradiation the concentration may be calculated using Lambert-Beer's law.
In order to get the half-life of the substance, a first order kinetic model was fitted to the experimental data. Since the UV-spectrum of the lamp and the UV-spectrum of the COLIPA standard sun are known, one can calculate the respective half-life of the UV-absorber under conditions of COLIPA standard sun irradiation [Bernd Herzog, Stefan Müller, Myriam Sohn, Uli Osterwalder, “New Insight and Prediction of Photostability of Sunscreens”, SÖFW Journal 133, 26-36 (2007)].

[3] = DPPH assay (antioxidative / antiradical activity); type: biochemical; settings: comparison with vitamin C, vitamin E, resveratrol
Text: For tests of antioxidative activity, the DPPH assay is used. DPPH (2,2-Diphenyl-1-picryl-hydrazyl) is a stable radical, which absorbs in its radical form at 515 nm. Upon reduction by an antioxidant (AH), the absorption disappears: DPPH.+AH→DPPH—H+A. (1)
The rate of reaction (1) can be rather different for different antioxidants.
In the test, the ratio of the molar concentrations of the antioxidant and DPPH is varied (this ratio is named “EC”=efficient concentration), and the concentration of DPPH in the equilibrium state is measured for each ratio. […] The smaller the EC50 value, the more efficient is the antioxidant. Thus, the inverse, 1/EC50, can be used to quantify the antiradical power.
Solutions of DPPH and the antioxidants in ethanol are prepared separately and added together for starting the reaction (0.5 cm^3 of a 250 μM antioxidant solution is added to 2.5 cm^3 of a 100 μM DPPH solution). The absorption is measured using a Perkin Elmer Lambda 20 spectrophotometer.

Solubility in water = type: physicochemical

Absorption maximum 1 A^1%1 cm [1]	Absorption maximum 1 λmax [1]	Absorption maximum 2 A^1%1 cm [1]	Absorption maximum 2 λmax [1]	photostability (in words) [2]	Half time [2] [h]	Solubility in water (Solubility in water) [%]	SMILES	shielding properties in the UV region (in words) [1]	antioxidant/radical scavenging power compared to state-of-the-art antioxidants (in words) [3]
997	280	447	396	–	–	–	COC(=O)c1cc(O)c(=O)c2c(O)c(O)c(C)cc2c1 [Compound B-6]	high shielding properties in the UV region; also recorded: UV-C/UV-B shielding properties as well as UV-A shielding properties	–
726	308	236	397	high photostability	40.1	–	O=C(O)CCCCCOc1cc2cc(C(=O)O)cc(O)c(=O)c2c(O)c1O [Compound B-19]	–	–
1027	305	–	–	–	–	–	COc1cc2cc(CO)cc(O)c(=O)c2c(O)c1O [Compound B-50]	–	–
1065	281	477	393	–	–	–	Cc1cc2cc(C(=O)O)cc(O)c(=O)c2c(O)c1O [Compound B-31]	–	–
750	309	250	398	high photostability	22.8	–	CCOC(=O)CCCCCOc1cc2cc(C(=O)O)cc(O)c(=O)c2c(O)c1O [Compound B-36]	–	–
533	309	193	402	–	–	–	CCCCCCCCCCCCOC(=O)c1cc(O)c(=O)c2c(O)c(O)c(OCCCCCCCCCCCC)cc2c1 [Compound B-53]	–	–
611	310	231	404	–	–	–	CCCCCCCCCCCCOc1cc2cc(C(=O)OC)cc(O)c(=O)c2c(O)c1O [Compound B-35]	–	–
575	310	210	403	–	–	–	CCCCCCCCCCCCOc1cc2cc(C(=O)OCCCCCCCC)cc(O)c(=O)c2c(O)c1O [Compound B-33]	–	–
711	295	–	–	–	–	–	Cc1cc2cc(CO)cc(O)c(=O)c2c(O)c1O [Compound B-61]	–	–
437	280	176	399	–	–	–	COC(=O)c1cc(O)c(=O)c2c(O)c(O)cc(CCO)c2c1 [Compound B-52]	–	–
799	281	383	406	–	–	–	COC(=O)c1cc(O)c(=O)c2c(O)c(O)cc(CCC(=O)O)c2c1 [Compound B-62]	–	–
550	288	204	397	–	–	–	COC(=O)c1cc(O)c(=O)c2c(O)c(O)c(O[C@@H]3O[C@H](CO)[C@H](O)[C@H](O)[C@H]3O)cc2c1 [Compound B-16]	–	–
573	310	208	404	high photostability	51.3	10.467	COC(=O)c1cc(O)c(=O)c2c(O)c(O)c(OCCCO[C@@H]3O[C@H](CO)[C@@H](O)[C@H](O)[C@H]3O)cc2c1 [Compound B-13]	–	more effective in the DPPH assay than the state-of-the-art antioxidant resveratrol
394	285	88	393	–	–	–	COC(=O)c1cc(O)c(=O)c2c(O)c(O)c(O[C@@H]3O[C@H](COC(C)=O)[C@H](OC(C)=O)[C@H](OC(C)=O)[C@H]3OC(C)=O)cc2c1 [Compound B-37]	–	–
1142	309	–	–	–	–	–	CCc1ccc2c(CC)c(O)c(O)c(O)c2c(=O)c1O [Compound B-54]	–	–
804	306	302	401	–	–	–	COC(=O)c1cc(O)c(=O)c2c(OC)c(O)c(OCCO)cc2c1 [Compound B-45]	–	–
754	310	269	398	–	–	–	COC(=O)c1cc(O)c(=O)c2c(O)c(O)c(OCCCCCC(=O)O)cc2c1 [Compound B-15]	–	–
788	311	–	–	–	–	–	CCCCc1ccc2c(CCCC)c(O)c(O)c(O)c2c(=O)c1O [Compound B-55]	–	–
966	276	460	400	high photostability	33.6	–	O=C(O)c1cc(O)c(=O)c2c(O)c(O)ccc2c1 [Compound B-2]	high shielding properties in the UV region; also recorded: UV-C/UV-B shielding properties as well as UV-A shielding properties	–
748	282	333	398	–	–	–	CCCCCCCCOC(=O)c1cc(O)c(=O)c2c(O)c(O)c(C)cc2c1 [Compound B-34]	–	–
864	307	305	396	high photostability	16.6	–	COc1cc2cc(C(=O)O)cc(O)c(=O)c2c(O)c1O [Compound B-4]	high shielding properties in the UV region; also recorded: UV-C/UV-B shielding properties as well as UV-A shielding properties	–
935	281	1179	305	high photostability	31.5	–	O=c1c(O)cccc2cc(O)c(O)c(O)c12 [Compound B-1]	high shielding properties in the UV region; also recorded: high absorption in the UV-C and UV-B region	–
593	287	246	399	–	–	–	COC(=O)c1cc(O)c(=O)c2c(O)c(O)c(O[C@@H]3O[C@H](CO)[C@@H](O)[C@H](O)[C@H]3O)cc2c1 [Compound B-7]	–	–
497	300	174	388	–	–	–	O=C(O)c1cc(O)c(=O)c2c(O)c(O)c(O[C@@H]3O[C@H](CO)[C@@H](O)[C@H](O)[C@H]3O)cc2c1 [Compound B-59]	–	–
574	310	203	404	high photostability	16.6	–	CCCCCCCC/C=C\CCCCCCCCOc1cc2cc(C(=O)OC)cc(O)c(=O)c2c(O)c1O [Compound B-32]	–	–

SMILES	Absorption maximum 1 A^1%1 cm [1]	Absorption maximum 1 λmax [1]	Absorption maximum 2 A^1%1 cm [1]	Absorption maximum 2 λmax [1]	photostability (in words) [2]	Half time [2] [h]	Solubility in water (Solubility in water) [%]	shielding properties in the UV region (in words) [1]	antioxidant/radical scavenging power compared to state-of-the-art antioxidants (in words) [3]
COC(=O)c1cc(O)c(=O)c2c(O)c(O)c(OC)cc2c1 [Compound B-5]	1008	308	399	403	extraordinary high inherent photostability	116.5	–	high shielding properties in the UV region; also recorded: UV-C/UV-B shielding properties as well as UV-A shielding properties	–
Cc1cc2cc(C(=O)NCCCCP(=O)(O)O)cc(O)c(=O)c2c(O)c1O [Compound B-49]	601	278	270	381	–	–	–	–	–
COC(=O)c1cc(O)c(=O)c2c(O)c(O)ccc2c1 [Compound B-3]	1007	277	516	395	extraordinary high inherent photostability	61.9	–	high shielding properties in the UV region; also recorded: UV-C/UV-B shielding properties as well as UV-A shielding properties	–
